Assay results published in ChEMBL document CHEMBL1155394, “SARS-CoV 3CLpro inhibitory effects of quinone-methide triterpenes from Tripterygium regelii” (Bioorg Med Chem Lett, 2010).

Experiments:
[1] = biological target: T1, Replicase polyprotein 1ab (Severe acute respiratory syndrome-related coronavirus, UniProt P0C6X7); experiment: Inhibition of 3C-like protease of SARS coronavirus assessed as concentration of FRET peptide for 60 mins by dixon plot
[2] = biological target: T1, Replicase polyprotein 1ab; experiment: Inhibition of 3C-like protease of SARS coronavirus assessed as concentration of FRET peptide for 60 mins

Row | SMILES | Ki [1] [µM] | IC50 [2] [µM]
1 | COC(=O)[C@]1(C)CC[C@]2(C)CC[C@]3(C)C4=CC=C5C(=CC(=O)C(O)=C5C)[C@]4(C)CC[C@@]3(C)[C@@H]2C1 [PRISTIMERIN] | 3.1 | 5.5
2 | CC1=C(O)C(=O)C=C2C1=CC=C1[C@@]2(C)CC[C@@]2(C)[C@@H]3C[C@](C)(C(=O)O)CC[C@]3(C)CC[C@]12C [CELASTROL] | 4.2 | 10.3
3 | CC1=C(O)C(=O)C=C2C1=CC=C1[C@@]2(C)CC[C@@]2(C)[C@@H]3C[C@@H](C)C(=O)C[C@]3(C)CC[C@]12C [TINGENONE] | 4 | 9.9
4 | COc1cc(/C=C/C(=O)CC(=O)/C=C/c2ccc(O)c(OC)c2)ccc1O [CURCUMIN] | – | 23.5
5 | Cc1c(O)c(O)cc2c1CC=C1[C@@]2(C)CC[C@@]2(C)[C@@H]3C[C@](C)(C(=O)O)CC[C@]3(C)CC[C@]12C [DIHYDROCELASTROL] | – | 21.7
